From article PMC10112521, “High-throughput AR dimerization assay identifies androgen disrupting chemicals and metabolites” (Frontiers in Toxicology, 2023)
Counter-ions that a name gives are not always drawn.

Legend:
[1] = tested on: AR2 cells (HepG2-AR2); assay: Alamar Blue (resazurin) post hoc cell viability / cytotoxicity assay in AR2 cells; details: spid Viability, sheet antagonist_fits; for hill_tp (Hill model top): 0 where win_model is Constant
Procedure: For antagonist mode and cytotoxicity data, well-level normalized response (resp) was calculated as: resp=100 * RLU−bval/pval−bval where pval is the median RLU value of the MEC positive control wells (minimum four wells).

[2] = target: T1, human AR (Homo sapiens, UniProt P10275); assay: AR2 assay, antagonist mode: disruption of R1881 (10 nM)-induced AR homodimerization in HepG2-AR2 cells; assay type: cell-based; details: spid AR_antagonist, sheet antagonist_fits
T1 sequence (P10275 1-920) 1: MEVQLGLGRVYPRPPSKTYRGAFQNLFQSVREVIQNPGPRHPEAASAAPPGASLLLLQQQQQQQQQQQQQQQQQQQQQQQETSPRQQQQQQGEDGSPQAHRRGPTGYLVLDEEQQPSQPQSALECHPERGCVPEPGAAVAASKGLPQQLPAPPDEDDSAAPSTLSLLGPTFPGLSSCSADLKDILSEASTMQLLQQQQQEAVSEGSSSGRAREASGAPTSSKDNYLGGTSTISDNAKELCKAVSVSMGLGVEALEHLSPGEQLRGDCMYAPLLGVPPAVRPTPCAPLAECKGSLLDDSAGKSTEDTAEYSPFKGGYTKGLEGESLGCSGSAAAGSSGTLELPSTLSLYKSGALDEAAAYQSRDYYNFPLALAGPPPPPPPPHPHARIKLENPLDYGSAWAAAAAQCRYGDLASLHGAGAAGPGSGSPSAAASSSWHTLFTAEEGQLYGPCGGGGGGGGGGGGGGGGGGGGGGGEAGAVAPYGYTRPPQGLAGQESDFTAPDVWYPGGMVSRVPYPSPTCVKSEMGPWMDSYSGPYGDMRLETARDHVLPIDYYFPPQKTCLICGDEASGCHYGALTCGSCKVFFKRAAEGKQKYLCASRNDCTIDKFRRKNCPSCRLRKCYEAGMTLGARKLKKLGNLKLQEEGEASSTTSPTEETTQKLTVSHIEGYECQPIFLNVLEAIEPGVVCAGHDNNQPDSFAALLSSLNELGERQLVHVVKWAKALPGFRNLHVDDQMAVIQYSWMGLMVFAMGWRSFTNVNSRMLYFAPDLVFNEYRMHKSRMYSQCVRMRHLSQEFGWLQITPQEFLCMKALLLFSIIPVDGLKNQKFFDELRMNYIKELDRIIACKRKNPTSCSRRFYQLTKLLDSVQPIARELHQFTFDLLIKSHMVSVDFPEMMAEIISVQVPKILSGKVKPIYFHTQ
T1 sequence (P10275 1-920) 2: T1 sequence (P10275 1-920) 1

[3] = target: T1, human AR; assay: AR2 assay, agonist mode: ligand-dependent AR homodimerization (NanoBiT luciferase complementation) in stable HepG2-AR2 cells; assay type: cell-based; details: sheet agonist_fits; maximum median response;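 further: Log2 fold change of luminescence over DMSO vehicle wells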

Cc1c(COC(=O)[C@@H]2[C@H](/C=C(\Cl)C(F)(F)F)C2(C)C)cccc1-c1ccccc1 (racemic) [Bifenthrin]
max_med (maximum median response) [1]: 19.5548 | hill_tp (Hill model top) [1]: 23.386

O=C(c1ccccc1)c1ccc(O)cc1O [2,4-Dihydroxybenzophenone]
max_med (maximum median response) [1]: 13.9578 | hill_tp (Hill model top) [1]: 7.468

CCCCC(CC)COC(=O)c1ccc(O)cc1 (stereo not drawn) [2-Ethylhexylparaben]
max_med (maximum median response) [1]: 99.7953 | hill_tp (Hill model top) [1]: 102.21

O=S(=O)(c1ccc(O)cc1)c1ccc(O)cc1 [4,4'-Sulfonyldiphenol]
max_med (maximum median response) [1]: 24.7063 | hill_tp (Hill model top) [1]: 39.4827

CCC(C)(C)c1ccc(O)cc1 [4-(2-Methylbutan-2-yl)phenol]
max_med (maximum median response) [1]: 17.1743 | hill_tp (Hill model top) [1]: 12.5636

CCCCCCCCCCCCc1ccc(O)cc1 [4-Dodecylphenol]
max_med (maximum median response) [1]: 99.7202 | hill_tp (Hill model top) [1]: 99.8404

O=C(O)c1ccc(O)cc1 [4-Hydroxybenzoic acid]
max_med (maximum median response) [1]: 5.145 | hill_tp (Hill model top) [1]: 0

CCCCCCCCCc1ccc(O)cc1 [4-Nonylphenol]
max_med (maximum median response) [1]: 99.78 | hill_tp (Hill model top) [1]: 100.689

C#C[C@]1(O)CC[C@H]2[C@@H]3CCc4cc(O)ccc4[C@H]3CC[C@@]21C [17alpha-Ethinylestradiol]
max_med (maximum median response) [1]: 47.5761 | hill_tp (Hill model top) [1]: 60.3321

C[C@]12CC[C@@H]3c4ccc(O)cc4CC[C@H]3[C@@H]1CC[C@@H]2O [17beta-Estradiol]
max_med (maximum median response) [1]: 11.6181 | hill_tp (Hill model top) [1]: 15.1874

COP(=O)(NC(C)=O)SC (stereo not drawn) [Acephate]
max_med (maximum median response) [1]: 10.7949 | hill_tp (Hill model top) [1]: 0

CC(C)(C#N)c1cc(Cn2cncn2)cc(C(C)(C)C#N)c1 [Anastrozole]
max_med (maximum median response) [1]: 9.832 | hill_tp (Hill model top) [1]: 0

CCCCN(CC)c1c([N+](=O)[O-])cc(C(F)(F)F)cc1[N+](=O)[O-] [Benfluralin]
max_med (maximum median response) [1]: 17.0663 | hill_tp (Hill model top) [1]: 11.4566

CCCCC(CC)COC(=O)CCCCC(=O)OCC(CC)CCCC (stereo not drawn) [Bis(2-ethylhexyl)hexanedioate]
max_med (maximum median response) [1]: 8.67 | hill_tp (Hill model top) [1]: 0

CCCCC(CC)COC(=O)c1ccccc1C(=O)OCC(CC)CCCC (stereo not drawn) [Bis(2-ethylhexyl)phthalate]
max_med (maximum median response) [1]: 27.6798 | hill_tp (Hill model top) [1]: 16.491

N#Cc1c(Cl)c(Cl)c(Cl)c(C#N)c1Cl [Chlorothalonil]
max_med (maximum median response) [1]: 85.6054 | hill_tp (Hill model top) [1]: 117.241

COP(=S)(OC)Oc1nc(Cl)c(Cl)cc1Cl [Chlorpyrifos-methyl]
max_med (maximum median response) [1]: 15.7636 | hill_tp (Hill model top) [1]: 36.973

CCN(CC)CCOc1ccc(C(=C(Cl)c2ccccc2)c2ccccc2)cc1 [Clomiphene citrate]
max_med (maximum median response) [1]: 99.676 | hill_tp (Hill model top) [1]: 104.376 | max_med (maximum median response) [2]: 103.883 | win_model (winning concentration-response model) [2]: Hill | hill_gw (Hill model slope) ([2]; 0 where win_model is Constant): 2.036 | hill_tp (Hill model top) ([2]; 0 where win_model is Constant): 106.625 | max_med [3]: -0.008157

C[C@]12C[C@H](O)[C@H]3[C@@H](CCC4=CC(=O)CC[C@@]43C)[C@@H]1CC[C@@H]2C(=O)CO [Corticosterone]
max_med (maximum median response) [1]: -0.2958

O=c1oc2cc(O)ccc2c2oc3cc(O)ccc3c12 [Coumestrol]
max_med (maximum median response) [1]: 39.9111 | hill_tp (Hill model top) [1]: 51.0591

C#C[C@]1(O)CC[C@H]2[C@@H]3CCC4=Cc5oncc5C[C@]4(C)[C@H]3CC[C@@]21C [Danazol]
max_med (maximum median response) [1]: 99.6979 | hill_tp (Hill model top) [1]: 119.707

CCOP(=S)(OCC)Oc1cc(C)nc(C(C)C)n1 [Diazinon]
max_med (maximum median response) [1]: 6.875 | hill_tp (Hill model top) [1]: 0

O=C1C(Cl)=C(Cl)C(=O)c2ccccc21 [Dichlone, dichlone]
max_med (maximum median response) [1]: 100 | hill_tp (Hill model top) [1]: 121.536

Clc1ccc(C(c2ccc(Cl)cc2)C(Cl)(Cl)Cl)cc1 [Dichlorodiphenyltrichloroethane]
max_med (maximum median response) [1]: 73.7925 | hill_tp (Hill model top) [1]: 94.5035

O=C(OC1CCCCC1)c1ccccc1C(=O)OC1CCCCC1 [Dicyclohexyl phthalate]
max_med (maximum median response) [1]: -2.0313

CC/C(=C(/CC)c1ccc(O)cc1)c1ccc(O)cc1 [Diethylstilbestrol]
max_med (maximum median response) [1]: 99.7753 | hill_tp (Hill model top) [1]: 119.773

CCCCCCOC(=O)c1ccccc1C(=O)OCCCCCC [Dihexyl phthalate]
max_med (maximum median response) [1]: 14.953 | hill_tp (Hill model top) [1]: 18.2229

CCCCCOC(=O)c1ccccc1C(=O)OCCCCC [Dipentyl phthalate]
max_med (maximum median response) [1]: 14.047 | hill_tp (Hill model top) [1]: 13.5743

CC(C)[C@H](C(=O)O[C@H](C#N)c1cccc(Oc2ccccc2)c1)c1ccc(Cl)cc1 [Esfenvalerate]
max_med (maximum median response) [1]: -0.2527

COP(=S)(OC)Oc1ccc(SC)c(C)c1 [Fenthion]
max_med (maximum median response) [1]: 20.1632 | hill_tp (Hill model top) [1]: 17.5948

CC(C)C(C(=O)OC(C#N)c1cccc(Oc2ccccc2)c1)c1ccc(Cl)cc1 (stereo not drawn) [Fenvalerate]
max_med (maximum median response) [1]: 17.5112 | hill_tp (Hill model top) [1]: 13.0316

CC(C)Oc1cccc(NC(=O)c2ccccc2C(F)(F)F)c1 [Flutolanil]
max_med (maximum median response) [1]: 9.82 | hill_tp (Hill model top) [1]: 12.8643

CCCCCC(=O)O[C@]1(C(C)=O)CC[C@H]2[C@@H]3CCC4=CC(=O)CC[C@]4(C)[C@H]3CC[C@@]21C [Hydroxyprogesterone caproate]
max_med (maximum median response) [1]: -5.885

O=c1c(O)c(-c2ccc(O)cc2)oc2cc(O)cc(O)c12 [Kaempferol]
max_med (maximum median response) [1]: 36.6036 | hill_tp (Hill model top) [1]: 30.9927

COCC(=O)N(c1c(C)cccc1C)C(C)C(=O)OC (stereo not drawn) [Metalaxyl]
max_med (maximum median response) [1]: 11.6523 | hill_tp (Hill model top) [1]: 11.8758

CCc1cccc(C)c1N(C(=O)CCl)C(C)COC (stereo not drawn) [Metolachlor]
max_med (maximum median response) [1]: 26.908 | hill_tp (Hill model top) [1]: 20.923

CSc1nnc(C(C)(C)C)c(=O)n1N [Metribuzin]
max_med (maximum median response) [1]: 29.1814 | hill_tp (Hill model top) [1]: 43.0001

CCCCC(CC)COC(=O)c1ccccc1C(=O)O (stereo not drawn) [Mono(2-ethylhexyl) phthalate]
max_med (maximum median response) [1]: 10.2899 | hill_tp (Hill model top) [1]: 5.023

C[Si]1(C)O[Si](C)(C)O[Si](C)(C)O[Si](C)(C)O1 [Octamethylcyclotetrasiloxane]
max_med (maximum median response) [1]: 28.4969 | hill_tp (Hill model top) [1]: 38.8496

CCCCC(CC)CN1C(=O)[C@@H]2[C@H](C1=O)[C@@H]1C=C[C@H]2C1 (stereo partly drawn) [Octylbicycloheptenedicarboximide]
max_med (maximum median response) [1]: 1.86 | hill_tp (Hill model top) [1]: 0

Oc1c(Cl)c(Cl)c(Cl)c(Cl)c1Cl [Pentachlorophenol]
max_med (maximum median response) [1]: 53.4588 | hill_tp (Hill model top) [1]: 63.2778

CC(C)=CC1C(C(=O)OCc2cccc(Oc3ccccc3)c2)C1(C)C (stereo not drawn) [Phenothrin]
max_med (maximum median response) [1]: 11.6591 | hill_tp (Hill model top) [1]: 28.3579

COP(=S)(OC)SCN1C(=O)c2ccccc2C1=O [Phosmet]
max_med (maximum median response) [1]: 21.0825 | hill_tp (Hill model top) [1]: 27.9412

C#CC(C)(C)NC(=O)c1cc(Cl)cc(Cl)c1 [Propyzamide]
max_med (maximum median response) [1]: 10.1701 | hill_tp (Hill model top) [1]: 0

O=C(c1ccc(OCCN2CCCCC2)cc1)c1c(-c2ccc(O)cc2)sc2cc(O)ccc12 [Raloxifene hydrochloride]
max_med (maximum median response) [1]: 99.7657

CC(C)(C)C(O)(CCc1ccc(Cl)cc1)Cn1cncn1 (stereo not drawn) [Tebuconazole]
max_med (maximum median response) [1]: 20.78 | hill_tp (Hill model top) [1]: 45.6531

CCC[CH2][Sn]([Cl])([CH2]CCC)[CH2]CCC [Tributylchlorostannane]
max_med (maximum median response) [1]: 99.8606 | hill_tp (Hill model top) [1]: 99.7567

Clc1ccc(Cl)cc1 [p-Dichlorobenzene]
max_med (maximum median response) [1]: 4.77

Abamectin
max_med (maximum median response) [1]: 81.1222
